# Legend:
# human TLR4 = human TLR4 (Homo sapiens, UniProt O00206); experiment: SPR binding to TLR4 coated on the chip
# [1] = Acetaminophen (APAP) hepatic toxicity model; format: in vivo, mouse
# Experimental: For the acetaminophen (APAP) hepatic toxicity model, three sets of experiments were conducted. In all experiments, mice were routinely fasted overnight and received intraperitoneal (IP) injection of APAP (350 mg/kg for survival studies and 400 mg/kg for serum measurements when mice were euthanized at 24 h post-APAP) as previous described. […] Mice had APAP injection and were euthanized 24 hours later (for serum measurements) or monitored for 2 weeks (for survival studies). […] In survival experiments, mice had APAP injection and received anti-HMGB1 antibodies (5 μg/mouse, IP, once daily for 4 days followed by two additional doses once every other day beginning at 2 hours post-APAP). Irrelevant non-immune IgG was used as controls. For serum measurements, mice subjected to APAP injection and received injection of monoclonal anti-HMGB1 antibody (5 μg/mouse, injected IP at 2 and 7 hours post-APAP) and euthanized at 24 hours post-APAP. The third set of experiments was used to assess the efficacy of P5779 in APAP model in wild type mice. […] Hepatotoxicity was determined by serum levels of glutamate dehydrogenase (GLDH), alanine aminotransferease (ALT) and aspartate aminotransferase (AST) as described previously. Antoine et al., Hepatology 58:777-787 (2013).
# Histological evaluation. […] sections were stained with hematoxylin and eosin.
# [2] = tested on: LPS-induced systemic cytokine levels; experiment: LPS injection in mice, serum TNF and IL-6; format: in vivo; settings: LPS 8 mg/kg i.p., peptide 500 μg/mouse i.p., 90 minutes
# Experimental: (§1) Cytokine and NF-κB measurements. […] Twenty two cytokines or chemokines were determined simultaneously.
# [3] = tested on: LPS-stimulated primary human macrophages; experiment: LPS-stimulated cytokine/chemokine release, primary human macrophages (cytokine Ab array); format: cell-based; settings: LPS 2 ng/ml, peptide 50 μg/ml, 16 h
# Experimental: as §1
# [4] = 500 μg/mouse i.p. at surgery, 6 h
# HMGB1 = target: T1, HMGB1 (Rattus norvegicus, UniProt P63159); experiment: SPR binding of peptide to HMGB1 coated on the chip; settings: absence of MD2
# T1 sequence (P63159 1-215): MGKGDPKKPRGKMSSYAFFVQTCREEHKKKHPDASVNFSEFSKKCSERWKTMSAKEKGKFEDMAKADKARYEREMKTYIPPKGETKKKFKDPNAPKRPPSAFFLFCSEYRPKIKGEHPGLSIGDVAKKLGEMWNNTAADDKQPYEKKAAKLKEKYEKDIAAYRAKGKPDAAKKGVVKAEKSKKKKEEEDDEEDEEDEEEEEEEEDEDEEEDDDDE
# [5] = tested on: HMGB1-induced TNF release, primary human macrophages; experiment: HMGB1-induced TNF release in primary human macrophages (ELISA); format: cell-based; settings: HMGB1 1 μg/ml, 16 h
# [6] = tested on: thioglycollate-elicited peritoneal mouse macrophages; experiment: HMGB1-induced cytokine release, mouse peritoneal macrophages (cytokine Ab array); format: cell-based; settings: HMGB1 1 μg/ml, peptide 50 μg/ml, 16 h
# Experimental: (§2) Cell isolation and culture. […] […]. TNF released was measured by ELISA.
# as §1
# [7] = Cecal ligation and puncture (CLP) sepsis model; format: in vivo; settings: 50 or 500 μg/mouse i.p. once a day for 4 days from 24 h after CLP
# Excerpt: Survival was monitored for 2 weeks.
# [8] = tested on: Poly I:C, S100A12, LPS, PGN and CpG DNA-mediated TNF release, primary human macrophages; settings: 16 h
# human MD2 = target: T2, human MD2 (Homo sapiens, UniProt Q9Y6Y9); experiment: Surface plasmon resonance (BIAcore) binding to human MD2; settings: SPR
# T2 sequence (Q9Y6Y9 19-160): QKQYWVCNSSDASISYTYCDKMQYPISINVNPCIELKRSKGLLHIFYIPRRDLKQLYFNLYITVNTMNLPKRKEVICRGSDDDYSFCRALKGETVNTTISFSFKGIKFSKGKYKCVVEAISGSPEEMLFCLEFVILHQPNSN
# RAW 264.7 cells = experiment: TNF release from RAW 264.7 cells stimulated with HMGB1 isoforms; format: cell-based, murine; settings: 1 μg/ml, 16 h
# Experimental: as §2, §1
# Sequence of human TLR4 (O00206 24-839): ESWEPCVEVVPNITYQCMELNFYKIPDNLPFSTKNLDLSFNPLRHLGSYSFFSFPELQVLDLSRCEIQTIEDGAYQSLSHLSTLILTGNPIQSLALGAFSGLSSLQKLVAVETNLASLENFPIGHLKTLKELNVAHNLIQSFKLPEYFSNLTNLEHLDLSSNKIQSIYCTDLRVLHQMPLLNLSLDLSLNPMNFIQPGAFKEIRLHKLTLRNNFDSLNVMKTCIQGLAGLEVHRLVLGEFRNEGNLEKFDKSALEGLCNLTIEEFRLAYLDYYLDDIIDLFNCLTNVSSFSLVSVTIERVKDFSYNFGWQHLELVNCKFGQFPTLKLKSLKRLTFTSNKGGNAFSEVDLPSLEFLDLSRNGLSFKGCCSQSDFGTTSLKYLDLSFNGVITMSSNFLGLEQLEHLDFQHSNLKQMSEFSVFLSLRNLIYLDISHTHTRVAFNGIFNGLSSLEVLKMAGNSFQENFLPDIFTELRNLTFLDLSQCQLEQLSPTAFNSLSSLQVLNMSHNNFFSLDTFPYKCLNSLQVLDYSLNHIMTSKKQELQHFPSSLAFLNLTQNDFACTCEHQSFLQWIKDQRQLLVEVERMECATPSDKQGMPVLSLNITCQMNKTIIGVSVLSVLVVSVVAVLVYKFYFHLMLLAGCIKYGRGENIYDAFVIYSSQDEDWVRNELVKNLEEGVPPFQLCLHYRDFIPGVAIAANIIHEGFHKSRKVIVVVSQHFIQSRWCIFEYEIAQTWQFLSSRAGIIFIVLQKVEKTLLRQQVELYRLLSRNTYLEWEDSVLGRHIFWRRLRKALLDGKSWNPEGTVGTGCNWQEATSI
molecule,measurement,setting,value
"N[C@@H](Cc1ccccc1)C(=O)N[C@@H](CO)C(=O)N[C@@H](CO)C(=O)N[C@@H](CCC(=O)O)C(=O)O [P5779, FSSE]",binding to TLR4,"human TLR4; SPR, absence of MD2",failed to bind
same,survival after APAP,"[1]; 500 μg/mouse i.p. once a day for 5 days, 2 weeks",improved survival
same,"APAP-induced elevation of hepatic serum enzymes (AST, ALT), TNF, liver necrosis","[1]; 50 or 500 μg/mouse i.p. at 2 and 7 h post-APAP, 24 h",dose-dependently reduced
same,"LPS-induced systemic cytokine levels (serum TNF, IL-6)",[2],failed to attenuate
same,LPS-stimulated cytokine/chemokine release in vitro,[3],did not inhibit
same,"hepatic serum enzyme release (AST, ALT) and neutrophil infiltration",[4],significantly blunted
same,binding to HMGB1,HMGB1,failed to bind
same,inhibition of HMGB1-induced TNF release (qualitative),[5],significantly inhibited
same,"HMGB1-induced release of IL-6, IL-12p40/p70, RANTES and MCP-1",[6],significantly reduced
same,survival after CLP vs scrambled peptide,[7],significantly and dose-dependently improved survival rates
same,"inhibition of TNF release mediated by Poly I:C, S100A12, LPS, PGN and CpG DNA",[8],failed to inhibit
disulfide HMGB1: recombinant HMGB1 with Cys23-Cys45 disulfide bond and reduced Cys106,HMGB1 binding to TLR4 in the absence of MD2,human TLR4; disulfide HMGB1 100 nM,incapable of directly binding to TLR4
same,Kd,"human MD2; read-out: apparent Kd of HMGB1 binding to MD2, MD2 or HMGB1 immobilized on the chip",12 nM
same,TNF release induced by HMGB1 isoform,RAW 264.7 cells,induced TNF secretion
"SFSE (MD2 binding protein) [control peptide, reference compound]",MD2-binding capacity (qualitative),human MD2; peptides 100 nM,abolished the MD2-binding capacity
same,inhibition of HMGB1-induced TNF release (qualitative),[5],abolished the capacity to inhibit HMGB1-induced TNF release
"H2S-modified HMGB1: HMGB1 with cysteine modified by H2S (NaSH) (protein, UniProt P09429 1-215, looked up, cysteine modified by H2S) High mobility group protein B1: MGKGDPKKPRGKMSSYAFFVQTCREEHKKKHPDASVNFSEFSKKCSERWKTMSAKEKGKFEDMAKADKARYEREMKTYIPPKGETKKKFKDPNAPKRPPSAFFLFCSEYRPKIKGEHPGLSIGDVAKKLGEMWNNTAADDKQPYEKKAAKLKEKYEKDIAAYRAKGKPDAAKKGVVKAEKSKKKKEEEEDEEDEEDEEEEEDEEDEDEEEDDDDE",TNF release induced by HMGB1 isoform,RAW 264.7 cells,failed to induce TNF release
sulfonyl HMGB1: HMGB1 with all cysteines terminally oxidized (protein) MGKGDPKKPRGKMSSYAFFVQTCREEHKKKHPDASVNFSEFSKKCSERWKTMSAKEKGKFEDMAKADKARYEREMKTYIPPKGETKKKFKDPNAPKRPPSAFFLFCSEYRPKIKGEHPGLSIGDVAKKLGEMWNNTAADDKQPYEKKAAKLKEKYEKDIAAYRAKGKPDAAKKGVVKAEKSKKKKEEEDDEEDEEDEEEEEEEEDEDEEEDDDDE,TNF release induced by HMGB1 isoform,RAW 264.7 cells,failed to induce TNF release
fully reduced HMGB1: HMGB1 with all cysteine residues reduced (protein) MGKGDPKKPRGKMSSYAFFVQTCREEHKKKHPDASVNFSEFSKKCSERWKTMSAKEKGKFEDMAKADKARYEREMKTYIPPKGETKKKFKDPNAPKRPPSAFFLFCSEYRPKIKGEHPGLSIGDVAKKLGEMWNNTAADDKQPYEKKAAKLKEKYEKDIAAYRAKGKPDAAKKGVVKAEKSKKKKEEEDDEEDEEDEEEEEEEEDEDEEEDDDDE,TNF release induced by HMGB1 isoform,RAW 264.7 cells,failed to induce TNF release
